{"source": "patent US20070227930A1", "about": "“Antimicrobial Product Combination” (priority 2006, published 2007)", "tested_on": "allergens", "assay": "Evaluation of oxidants and antimicrobials for allergen deactivating ability", "conditions": "very dilute solution, on the order of 40-80 ppm", "source_text": "Presumably the low levels of oxidant are still able to break up the allergen proteins, rendering them biologically inert.", "data": [{"smiles": "OCl", "note": "[hypochlorous acid]", "values": [{"measurement": "Allergen deactivating ability", "value": "effectively deactivate allergens"}]}]}
